Article PMC4315625 (Cancer discovery, 2014)
Like-named read-outs stand apart in the source and are kept apart here.

Assays:
[1] = tested on: EGFR^L858R driven lung adenocarcinomas (C/L858R mice); assay: C/L858R transgenic lung adenocarcinoma model
[2] = target: wild-type EGFR (A431, LOVO, NCI-H2073) (Homo sapiens, UniProt P00533); assay: In vitro EGFR phosphorylation assay; format: cell-based; details: read-out: potency against wild-type EGFR
[3] = Preliminary clinical pharmacokinetics, AURA Phase 1; format: in vivo, human
IGF-1R = IGF-1R (Homo sapiens, UniProt P08069); assay: Cellular IGF-1R phosphorylation assay; format: cell-based; details: cellular phosphorylation assay as surrogate
Chain of IGF-1R (P08069 31-1367, species assumed): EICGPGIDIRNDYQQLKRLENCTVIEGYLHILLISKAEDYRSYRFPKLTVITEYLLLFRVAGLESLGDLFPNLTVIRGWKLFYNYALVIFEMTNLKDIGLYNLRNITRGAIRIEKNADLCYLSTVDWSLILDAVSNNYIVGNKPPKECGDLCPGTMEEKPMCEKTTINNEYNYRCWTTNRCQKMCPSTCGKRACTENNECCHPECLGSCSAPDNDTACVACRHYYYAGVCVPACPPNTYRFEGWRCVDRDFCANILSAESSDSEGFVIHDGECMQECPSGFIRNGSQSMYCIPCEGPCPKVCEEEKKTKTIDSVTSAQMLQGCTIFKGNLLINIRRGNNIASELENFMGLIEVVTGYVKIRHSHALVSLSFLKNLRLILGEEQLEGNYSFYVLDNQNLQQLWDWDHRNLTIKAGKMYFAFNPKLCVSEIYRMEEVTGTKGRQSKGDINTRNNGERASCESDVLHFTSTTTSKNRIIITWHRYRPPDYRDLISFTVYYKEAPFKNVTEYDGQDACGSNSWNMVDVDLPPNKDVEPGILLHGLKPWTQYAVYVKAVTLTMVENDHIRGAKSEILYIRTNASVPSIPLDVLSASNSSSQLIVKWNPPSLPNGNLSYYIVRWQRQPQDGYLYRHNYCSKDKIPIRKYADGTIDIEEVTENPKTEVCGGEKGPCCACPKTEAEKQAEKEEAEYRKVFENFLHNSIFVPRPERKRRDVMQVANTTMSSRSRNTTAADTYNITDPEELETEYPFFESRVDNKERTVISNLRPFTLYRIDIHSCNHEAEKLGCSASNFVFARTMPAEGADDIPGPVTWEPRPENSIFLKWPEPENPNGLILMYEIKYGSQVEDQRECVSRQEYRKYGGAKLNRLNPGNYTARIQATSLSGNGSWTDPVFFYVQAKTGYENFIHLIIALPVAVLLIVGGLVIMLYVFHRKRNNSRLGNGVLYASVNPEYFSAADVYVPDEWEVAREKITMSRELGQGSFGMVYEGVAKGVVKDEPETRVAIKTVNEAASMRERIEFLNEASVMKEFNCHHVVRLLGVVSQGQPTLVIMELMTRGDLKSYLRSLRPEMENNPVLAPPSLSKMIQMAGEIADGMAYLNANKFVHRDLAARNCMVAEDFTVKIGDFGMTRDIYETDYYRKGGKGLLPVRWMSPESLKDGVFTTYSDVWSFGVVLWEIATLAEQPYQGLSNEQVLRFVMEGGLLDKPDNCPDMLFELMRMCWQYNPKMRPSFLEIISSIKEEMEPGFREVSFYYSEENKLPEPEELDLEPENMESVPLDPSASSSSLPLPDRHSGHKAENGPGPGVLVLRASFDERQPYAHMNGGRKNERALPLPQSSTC

[4] = tested on: mutant and wild-type EGFR cell lines; assay: Sytox phenotypic assay across cell lines; format: cell-based
[5] = tested on: EGFR^L858R + T790M driven lung adenocarcinomas (C/L+T mice); assay: C/L+T transgenic lung adenocarcinoma model; details: AZD9291 5 mg/kg/day, afatinib 7.5 mg/kg/day, AZ5104 5 mg/kg/day; one to two weeks
[6] = target: EGFR variant III (EGFRvIII) (Homo sapiens, UniProt P00533, DELINS30-297G); assay: Phospho-EGFR immunoblot in transfected 293 cells, EGFRvIII; format: cell-based; details: 6 hours
HER2 (ErbB2) = HER2 (ErbB2) (Homo sapiens, UniProt P04626); assay: Cellular HER2 phosphorylation; format: cell-based; details: three cellular approaches
Chain of HER2 (ErbB2) (P04626 676-1255 limits assumed): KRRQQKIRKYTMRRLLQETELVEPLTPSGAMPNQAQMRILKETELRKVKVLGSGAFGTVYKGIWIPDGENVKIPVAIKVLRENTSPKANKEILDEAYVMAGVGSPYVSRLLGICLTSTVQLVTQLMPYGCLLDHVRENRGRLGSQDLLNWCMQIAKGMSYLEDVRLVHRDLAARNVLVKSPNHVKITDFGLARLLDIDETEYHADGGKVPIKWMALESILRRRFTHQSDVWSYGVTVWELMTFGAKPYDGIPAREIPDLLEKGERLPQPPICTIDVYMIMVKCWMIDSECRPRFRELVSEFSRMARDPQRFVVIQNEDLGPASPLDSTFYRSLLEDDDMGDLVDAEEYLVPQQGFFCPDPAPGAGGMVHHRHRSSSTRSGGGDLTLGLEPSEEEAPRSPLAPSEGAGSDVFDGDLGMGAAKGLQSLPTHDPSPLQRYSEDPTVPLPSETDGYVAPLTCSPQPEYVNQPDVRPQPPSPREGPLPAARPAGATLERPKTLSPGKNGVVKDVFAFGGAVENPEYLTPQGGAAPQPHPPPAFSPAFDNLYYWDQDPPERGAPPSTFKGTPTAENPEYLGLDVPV

[7] = Pharmacokinetics after oral dosing in the mouse; format: in vivo
[8] = tested on: EGFR in mutant and wild-type cell lines; assay: In vitro EGFR phosphorylation assay, mutant and wild-type cell lines overall; details: compared to AZD9291
[9] = tested on: Parental EGFRm+ lines (PC-9, H3255, HCC827, HCC4006, 11-18); assay: Growth inhibition assay; format: cell-based; details: independent laboratory
[10] = tested on: H1781 cells (VC insertion at G776 in exon 20 of HER2); assay: Growth inhibition of HER2 mutant H1781 cells; format: cell-based; details: NCI-H1781, read-out: IC50, growth
[11] = tested on: lines harboring non-T790M resistance: 11-18/ER (NRAS), HCC827/ER2 (MET amplification), HCC4006/ER (EMT); details: independent laboratory
A431 xenografts = details: 5 mg/kg/day
[12] = tested on: phospho-EGFR (Tyr1173) in H1975 xenografts; assay: Pharmacodynamics in H1975 xenografts; format: in vivo, mouse; details: single dose 5 mg/kg
[13] = Blood glucose and insulin levels after single oral dose in rats; format: in vivo, rat; details: single oral dose of 200 mg/kg, over a 24 hour period
NCI-H820 cells = assay: Large cell panel proliferation profiling study; format: cell-based; details: NCI-H820, read-out: IC50, proliferation
EBC-1 cells = assay: Large cell panel proliferation profiling study; format: cell-based; details: Homo sapiens, EBC-1, read-out: IC50, proliferation
[14] = tested on: advanced EGFRm+ T790M NSCLC; assay: Radiographic tumor response; format: in vivo, human; details: for tumor shrinkage: 20 mg once daily
[15] = tested on: PC-9 (ex19del) tumor xenograft; assay: PC-9
[16] = tested on: approximately 280 other kinases; assay: Commercial biochemical kinome panel
[17] = tested on: EGFR L861Q, G719S and exon 19 insertion (I744-K745insKIPVAI); assay: Phospho-EGFR immunoblot in transfected 293 cells, rare sensitive mutants; format: cell-based; details: 6 hours
[18] = Adverse events and blood glucose in two patients, AURA Phase 1; format: in vivo, human
[19] = tested on: lines harboring EGFR T790M (H1975, HCC827/ER1, PC-9/BRc1 and H3255/XLR); details: independent laboratory
[20] = tested on: phospho-EGFR and downstream markers; details: 5mg/kg dosing
[21] = Body weight of xenograft-bearing mice on daily dosing; format: in vivo, mouse; details: daily dosing for 200 days, PC-9 and H1975 studies
[22] = tested on: wild-type EGFR cell lines (Calu3, H2073); assay: Sytox Green live/dead cell phenotype assay, wild-type EGFR lines; format: cell-based; details: compared to AZD9291
[23] = tested on: T790M EGFR cell lines (H1975, PC-9VanR); details: compared to AZD9291
[24] = tested on: EGFR^L858R + T790M driven lung adenocarcinomas (C/L+T mice); details: cited from earlier work
[25] = tested on: EGFR^L858R driven lung adenocarcinomas (C/L858R mice); details: cited from earlier work
[26] = patients, AZD9291 mesylate 20 mg oral, preliminary

C=CC(=O)Nc1cc(Nc2nccc(-c3c[nH]c4ccccc34)n2)c(OC)cc1N(C)CCN(C)C [AZ5104]
tumor response ([1]; AZ5104 5 mg/kg/day): effective in shrinking tumors
IC50 [2]: 33 nM
half-life [3, 26]: at least 50 hours
activity towards IGF-1R (IGF-1R): did not exhibit significant activity
potency across cell lines in phenotypic assay ([4]; compared to AZD9291): much greater potency across cell lines
tumor response [5]: effective in shrinking tumors
potency against EGFRvIII mutant [6]: higher level of activity
inhibition of phosphorylation of HER2 (HER2 (ErbB2)): more potency than AZD9291

C=CC(=O)Nc1cc(Nc2nccc(-c3cn(C)c4ccccc34)n2)c(OC)cc1N(C)CCNC [AZ7550]
total exposure levels (AUC) compared to the parent compound ([7]; circulating metabolite in plasma): approximately 68%
half-life [3, 26]: at least 50 hours
potency across cell lines in phenotypic assay [4]: broadly similar
potency and profile against mutant and wild-type cell lines [8]: very similar potency and profile to AZD9291

CNC(=O)CN1CCC(Oc2cc3c(Nc4cccc(Cl)c4F)ncnc3cc2OC)CC1 [AZD8931]
sensitivity of parental EGFRm+ lines [9]: sensitive

C=CC(=O)Nc1cc(Nc2nccc(-c3cn(C)c4ccccc34)n2)c(OC)cc1N(C)CCN(C)C [AZD9291]
reduction in tumor volume by MRI ([1]; AZD9291 5 mg/kg/day, afatinib 7.5 mg/kg/day, 5 of 5 mice): ~80%
IC50 [10]: 80 nM
bioavailability [7]: good bioavailability
clearance [7]: moderate clearance
tissue distribution [7]: widely distributed in tissues
half-life ([7]; plasma, po): ~180 min
activity against lines harboring non-T790M resistance [11]: not effective
half-life ([3]; human, plasma, po, 20 mg): ≥ 3000 min
tumor growth inhibition (A431 xenografts): moderate tumor growth inhibition
phospho-EGFR and downstream signalling ([12]; after 6 hours): strongly inhibited
phospho-EGFR staining ([12]; after the 30 hour time point): remained significantly diminished
activity towards IGF-1R (IGF-1R): did not exhibit significant activity
change in blood glucose or insulin levels [13]: did not cause a significant change
IC50 (NCI-H820 cells): ~1000 nM
sensitivity of parental EGFRm+ lines [9]: sensitive
IC50 (EBC-1 cells): ~1000 nM
duration of response ([14]; both patients, 20 mg/day): approximately 9 months
progression-free time ([14]; both patients, 20 mg/day, RECIST 1.1): approximately 11 months
tumor shrinkage ([14]; first patient, scan 1): 39.7%
tumor shrinkage ([14]; first patient, scan 2): 48.3%
tumor shrinkage ([14]; first patient, scan 3): 48.3%
tumor shrinkage ([14]; first patient, scan 4): 48.3%
tumor shrinkage ([14]; first patient, scan 5): 51.7%
tumor shrinkage ([14]; second patient, scan 1): 38%
tumor shrinkage ([14]; second patient, scan 2): 39.3%
tumor shrinkage ([14]; second patient, scan 3): 56.7%
tumor shrinkage ([14]; second patient, scan 4): 62%
tumor shrinkage ([14]; second patient, scan 5): 59.3%
tumors with no visible tumor ([15]; following 40 daily doses with 5 mg/kg, sustained out to 200 days): 8 of 8
lowest dose with tumor shrinkage observed ([15]; once daily, after 14 days): 2.5 mg/kg/day
off-target kinase activity / secondary target profile ([16]; 1 μM): minimal off-target kinase activity
inhibition at 1 μM ([16]; ErbB2/4, ACK1, ALK, BLK, BRK, MLK1 and MNK2): greater than 60%
effect on phospho-EGFR of L861Q, G719S and exon 19 insertion [17]: somewhat less potent compared with the AZ5104 metabolite
tumor response [5]: significant tumor shrinkage
diarrhea events ([18]; 20 mg once daily): one reported CTCAE Grade 1 diarrhea
rash events ([18]; 20 mg once daily): no rash events
blood glucose levels ([18]; during the study): No significant aberration
inhibition of phosphorylation of HER2 (HER2 (ErbB2)): moderate potency levels
activity against lines harboring EGFR T790M [19]: low nanomolar activity
target inhibition in treated tumors [20]: observed target inhibition
body weight loss [21]: less than 5 % of starting body weight

COc1cc2ncnc(Nc3ccc(F)c(Cl)c3)c2cc1NC(=O)/C=C/CN1CCCCC1 [dacomitinib]
potency towards wild-type EGFR, Sytox [22]: much greater potency towards wild-type EGFR
activity against T790M lines, Sytox [23]: much less activity against T790M lines

C#Cc1cccc(Nc2ncnc3cc(OCCOC)c(OCCOC)cc23)c1 [erlotinib]
tumor sensitivity [24]: resistant
sensitivity of parental EGFRm+ lines [9]: sensitive
tumor sensitivity [25]: sensitive

COc1cc2ncnc(Nc3ccc(F)c(Cl)c3)c2cc1OCCCN1CCOCC1 [gefitinib, reference compound]
time until tumors began to re-grow ([15]; 6.25 mg/kg/day): approximately 90 days
tumor regression ([15]; 6.25 mg/kg/day, compared with AZD9291 5 mg/kg): less tumor regression
